For the first data set, the target named is PHD2 (Homo sapiens, UniProt Q9GZT9). In words: PHD2 RF-MS hydroxylation assay.
PHD2, sequence (Q9GZT9 181-426): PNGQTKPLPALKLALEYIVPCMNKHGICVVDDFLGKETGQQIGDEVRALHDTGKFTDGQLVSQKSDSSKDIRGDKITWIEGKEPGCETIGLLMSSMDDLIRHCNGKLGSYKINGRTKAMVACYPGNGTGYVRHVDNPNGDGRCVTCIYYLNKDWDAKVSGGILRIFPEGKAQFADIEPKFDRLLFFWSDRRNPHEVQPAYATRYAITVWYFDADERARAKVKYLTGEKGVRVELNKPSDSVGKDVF
Settings: not given
Type of data set: biochemical. The method, then:
In brief, cDNA encoding for the catalytic domain of tPHD2 (181-426 residues) was cloned into the pET28a(+)/pET24a(+) vectors (Novagen), to enable production of tPHD2 (residues 181-426) protein with/without an N-terminal His6-tag. The tPHD2 (residues 181-426) encoding construct was transformed into the Escherichia coli BL21 DE3 cell line; protein production was induced with 0.5 mM […] (3-5 hr at 28° C.). […] The protein was exchanged into 50 mM Tris-HCl buffer (pH 7.5) and concentrated to % 40 mg/ml.
Tris(hydroxymethyl)aminomethane was from Fisher. […] All inhibition assays were carried out in 384-well polypropylene plates (Greiner Bio-One). […] PHD2 protein was prepared at a concentration of 300 nM in assay buffer and 25 μl dispensed across each 384-well assay plate. […] After loading the C4 SPE was washed with 0.1% formic acid in water to remove non-volatile buffer salts and then peptide was eluted from the SPE with 85% acetonitrile, 15% water containing 0.1% formic acid onto the mass spectrometer. Peptide charge states were monitored in positive mode. […] IC50 values were determined from non-linear regression plots using GraphPad prism.
SAR studies for PHD2 inhibition were carried out on the compounds of the invention. Compounds were screened against PHD2 using the RF-MS hydroxylation assay.
By IC50 is commonly meant the concentration at which inhibition is half-maximal. Compound `O=C(NCc1ccc(-c2ccccc2)cc1)c1ccc(-n2cccn2)cc1O` [Compound 16, N-([1,1′-biphenyl]-4-ylmethyl)-2-hydroxy-4-(1H-pyrazol-1-yl)benzamide] yielded an IC50 greater than 10 µM.

Compound `O=C(NCc1ccc(-c2ccccc2)cc1)c1cnc(-n2cccn2)nc1` [Compound 20, N-([1,1′-Biphenyl]-4-ylmethyl)-2-(1H-pyrazol-1-yl)pyrimidine-5-carboxamide] registered an IC50 greater than 10 µM.

`O=C(NCc1ccc(-c2ccccc2)cc1)c1ccc(-n2cccn2)nc1` [Compound 22, N-([1,1′-Biphenyl]-4-ylmethyl)-6-(1H-pyrazol-1-yl)nicotinamide] showed a concentration for half-maximal inhibition (IC50) greater than 10 µM.

Regarding `O=C(NCC1CCCCC1)c1cnc(-n2cccn2)cc1O` [Compound 44, N-(Cyclohexylmethyl)-4-hydroxy-6-(1H-pyrazol-1-yl)nicotinamide], the IC50 was greater than 10 µM.

For `COc1cc(-n2cc(C(=O)NCc3ccc(-c4ccccc4)cc3)cn2)ncc1C#N` [Compound 93], the IC50 is greater than 10 µM.

For `N#Cc1ccc(-n2cc(C(=O)NCc3ccc(-c4ccccc4)cc3)cn2)nc1` [Compound 97], the half-inhibitory concentration (IC50) is greater than 10 µM.

As for `O=C(O)c1ccnc(-n2cc(C(=O)NCc3ccc(-c4ccccc4)cc3)cn2)c1` [Compound 103], the IC50 is greater than 10 µM.

With `O=C(Nc1ccc(-c2ccccc2)cc1)c1cnn(-c2cc(O)ccn2)c1` [Compound 108], the IC50 is greater than 10 µM.

A further data set deals with HIF1-α in Hep3B cells. The experiment in a line: Immunoblots of Hep3B cells (HIF1-α protein levels). Type of data set: cell-based. Also on record: dose or concentration left out as unconfirmed. Particulars: 3 hours. The method, then:
Cells were grown to 90% confluency.
Hep3B cells were treated with compounds 117, 119, 122 and 123 of the invention (Examples 93, 95, 98 and 99) at 100 µM (A) and 20 µM (B) PHD inhibitors for 3 hours.
(Immunoblotting shows a protein as a band on a membrane.)
For the compound `O=C(NCc1ccc(-c2ccccc2)cc1)c1cnc2c(cnc3ccnn32)c1O` [Compound 117, N-([1,1′-Biphenyl]-4-ylmethyl)-6-hydroxypyrazolo[1,5-a]pyrido[3,2-e]pyrimidine-7-carboxamide], the “HIF-1α stabilisation (immunoblot)” value was “stabilise HIF-1α”.

`O=C(Nc1ccc(-c2ccccc2)cc1)c1cnc2c(cnc3ccnn32)c1O` [Compound 119, N-([1,1′-Biphenyl]-4-yl)-6-hydroxypyrazolo[1,5-a]pyrido[3,2-e]pyrimidine-7-carboxamide]: the “HIF-1α stabilisation (immunoblot)” value is “stabilise HIF-1α”.

As for `Cc1cc2nc(C)c3c(O)c(C(=O)NCc4ccc(-c5ccccc5)cc4)cnc3n2n1` [Compound 122, N-([1,1′-Biphenyl]-4-ylmethyl)-6-hydroxy-2,5-dimethylpyrazolo[1,5-a]pyrido[3,2-e]pyrimidine-7-carboxamide], the “HIF-1α stabilisation (immunoblot)” value is reported as “stabilise HIF-1α”.

Take `Cc1cc2nc(C)c3c(O)c(C(=O)NCc4ccc(C(F)(F)F)cc4)cnc3n2n1` [Compound 123, 6-Hydroxy-2,5-Dimethyl-N-(4-(trifluoromethyl)benzyl)pyrazolo[1,5-a]pyrido[3,2-e]pyrimidine-7-carboxamide]: the “HIF-1α stabilisation (immunoblot)” value is reported as “stabilise HIF-1α”.

System in another data set: not given
Test: not given
The note with it: mouse, in vivo, ip.
As to `O=C(NCC1CCC(C(F)(F)F)CC1)c1cnc(-n2cccn2)cc1O` (centres unmarked) [Compound 68, 4-Hydroxy-6-(1H-pyrazol-1-yl)-N-((4-(trifluoromethyl)cyclohexyl)methyl)nicotinamide], the adverse effects result is on record as “no adverse effects”.

System in the next data set: not listed separately
The experiment in a line: In vivo blood counts in C57BL/6 mice. The note with it: twice daily IP, 8 days.
Description: Values are shown pre-treatment, and 4 and 8 days after treatment.
Blood samples were taken either pre-treatment, on the 4th day into treatment or on the 8th day of treatment. Blood samples were analysed using Celltac Alpha MEK-6500K.
Samples were taken either pre-treatment, on the 4th day into treatment or on the 8th day of treatment. Blood samples were analysed using Celltac Alpha MEK-6500K.
For `O=C(O)CNC(=O)C1C(=O)N(C2CCCCC2)C(=O)N(C2CCCCC2)C1=O` [Daprodustat], the adverse effects result is recorded as “no adverse effects”.

The values above are taken from patent US20260226055A1, “PYRAZOLE DERIVATIVES AS PHD INHIBITORS” (Oxford University Innovation Limited, priority 2023, published 2026).
